Source: US20140178902A1, “METHOD FOR DETECTING INFECTIONS” (priority 2011, published 2014)

Key:
[1] = test system: antibody (anti-PSC1A, rabbit antisera); experiment: Competitive ELISA: free FusC against antibody recognition of conjugate PSC2A; format: binding; details: Free FusC 6.5 μg/ml
Procedure: FIG. 5: Competitive ELISA detection of TAFC and FusC. A. Immobilised antigen was an equimolar combination of PSC2B and PSC3B (acetylated & non-acetylated cBSA-SMCC-FusC^Fe3+), coated at 2.5 μg/ml (250 ng/well). Murine antisera was used (1/1000) which was raised against KLH-sHSAB-ih/cTAFC(PSC1A & PSC1B); Competition antigens were either FusC or cTAFC (0-20 μg/ml, respectively). B. FusC detection by ELISA. Free FusC 6.5 μg/ml prevents antibody (anti-PSC1A, rabbit antisera) recognition of conjugate PSC2A (cBSA-SATA-SMCC-FusC).
Microtitre plates (Nunc Maxisorp™ available from Nunc A/S, Roskilde, Denmark) were coated with either FusC (range used for optimisation: 0-66 μg/ml) or an equimolar combination of PSC2B/PSC3B conjugates (range used for optimisation: 0-10 μg/ml) in 50 mM sodium carbonate pH 9.4 for 16 hr (100 μl/well). […] Finally the absorbance was measured at 450/620 nm using a Synergy plate reader and standard curves of A450/620 nm versus log FusC concentration (0-100 μg/ml (or 0-20 μg/ml TAFC) constructed, from which the concentration of FusC in normal clinical specimens, of animal and human origin, was computed.
For example, it was observed that FusC or TAFC, respectively, could be detected by ELISA using murine antisera [anti-KLH-sHSAB-ihTAFC or cTAFC] […]

rabbit Anti-FusC = experiment: Protein immunoblot of gold nanoparticle conjugates; format: binding; details: serial dilutions
Procedure: Confirmation of conjugate formation was performed using a protein immunoblot. 4 μl of AuNP-FsC-BSA, Au-BSA and FusC-BSA samples were spotted onto a nitrocellulose membrane strip in serial dilutions (A-E) prepared in 2 mM borate (pH 9.0). Spots were allowed to dry before the strip was blocked for 30 min in Marvel (5% (w/v) in PBS). Membranes were then incubated for 30 min with primary antibody (rabbit Anti-FusC), diluted using blocking buffer (1/1000). Nitrocellulose blots were subsequently washed (2×5 min) in blocking solution and then incubated with a 1/1000 dilution of anti-rabbit IgG peroxidase-conjugated secondary antibody (Sigma-Aldrich), shaking for 30 min at room temperature. The nitrocellulose membranes were then washed extensively (2×5 min) in blocking solution and rinsed (2×5 min) with PBS. Immunoreactive samples were visualized using Pierce ECL Chemiluminescent Substrate (Fischer Scientific) for the detection of horseradish peroxidase.

Compound | antibody recognition of conjugate PSC2A (cBSA-SATA-SMCC-FusC) [1] | reactivity in immunoblot with rabbit Anti-FusC (rabbit Anti-FusC)
C/C1=C/C(=O)N(O)CCCC(N)C(=O)OCC/C(C)=C\C(=O)N(O)CCCC(N)C(=O)OCC/C(C)=C\C(=O)N(O)CCCC(N)C(=O)OCC1 (centres unmarked) [FusC, fusarinine C] | prevents | 
BSA-AuNP: negative control BSA gold nanoparticle conjugate |  | No reactivity is visible
